{"source": "ChEMBL document CHEMBL4411281", "about": "“Unravel a neuroactive sHA sulfation pattern with neurogenesis activity by a library of defined oligosaccharides” (Eur J Med Chem, 2019)", "key": {"[1]": {"experiment": "Induction of neurite outgrowth in Sprague-Dawley E18 rat hippocampal neurons assessed as neurite length after 24 hrs by DAPI staining-based assay relative to control", "format": "functional, Hippocampal neurone"}, "[2]": {"molecular_target": "T1, Neurotrophic factor BDNF precursor form (Homo sapiens, UniProt P23560)", "T1 sequence (P23560 whole entry)": "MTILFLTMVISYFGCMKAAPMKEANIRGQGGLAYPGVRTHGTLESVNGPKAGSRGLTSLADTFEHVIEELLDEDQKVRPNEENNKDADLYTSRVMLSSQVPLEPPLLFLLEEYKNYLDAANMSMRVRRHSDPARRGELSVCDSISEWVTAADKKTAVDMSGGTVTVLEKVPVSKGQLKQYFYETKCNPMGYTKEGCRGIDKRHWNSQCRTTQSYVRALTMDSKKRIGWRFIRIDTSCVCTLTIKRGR", "experiment": "Binding affinity to BDNF (unknown origin) by SPR assay"}, "Midkine (Homo sapiens)": {"molecular_target": "T2, Midkine (Homo sapiens) (UniProt P21741)", "T2 sequence (whole entry)": "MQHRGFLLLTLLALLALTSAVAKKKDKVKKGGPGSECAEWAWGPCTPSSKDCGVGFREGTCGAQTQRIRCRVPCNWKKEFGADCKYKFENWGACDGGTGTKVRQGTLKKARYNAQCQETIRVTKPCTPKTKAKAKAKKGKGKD", "experiment": "Binding affinity to MDK (unknown origin) at 800 nM by SPR assay"}, "[3]": {"molecular_target": "T3, Pleiotrophin (Homo sapiens) (UniProt P21246)", "T3 sequence (whole entry)": "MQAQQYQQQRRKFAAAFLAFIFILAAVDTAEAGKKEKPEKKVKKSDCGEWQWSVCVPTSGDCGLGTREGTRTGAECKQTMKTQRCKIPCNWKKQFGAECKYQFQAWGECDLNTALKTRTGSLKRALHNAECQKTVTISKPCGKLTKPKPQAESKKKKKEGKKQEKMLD", "experiment": "Binding affinity to PTN (unknown origin) at 800 nM by SPR assay"}, "[4]": {"molecular_target": "Fibroblast growth factor 1 (Homo sapiens) (UniProt P05230)", "sequence (P05230 whole entry)": "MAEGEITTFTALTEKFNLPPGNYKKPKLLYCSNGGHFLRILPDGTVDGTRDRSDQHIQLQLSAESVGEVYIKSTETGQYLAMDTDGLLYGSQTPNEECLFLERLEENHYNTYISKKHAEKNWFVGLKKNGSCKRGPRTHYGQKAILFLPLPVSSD", "experiment": "Binding affinity to FGF-1 (unknown origin) at 800 nM by SPR assay"}, "[5]": {"molecular_target": "T4, Neurotrophic factor BDNF precursor form (Homo sapiens) (UniProt P23560)", "T4 sequence (whole entry)": "T1 sequence (P23560 whole entry)", "experiment": "Binding affinity to BDNF (unknown origin) at 800 nM by SPR assay"}, "Midkine": {"molecular_target": "T5, Midkine (Homo sapiens, UniProt P21741)", "T5 sequence (P21741 whole entry)": "T2 sequence (whole entry)", "experiment": "Binding affinity to MDK (unknown origin) by SPR assay"}, "Pleiotrophin": {"molecular_target": "T6, Pleiotrophin (Homo sapiens, UniProt P21246)", "T6 sequence (P21246 whole entry)": "T3 sequence (whole entry)", "experiment": "Binding affinity to PTN (unknown origin) by SPR assay"}, "Hippocampal neurone [6]": {"tested_on": "Hippocampal neurone", "experiment": "Induction of neurite outgrowth in Sprague-Dawley E18 rat hippocampal neurons assessed as neurite length after 24 hrs in presence of anti-MDK antibody by DAPI staining-based assay relative to control", "format": "functional, cell-based"}, "Hippocampal neurone [7]": {"tested_on": "Hippocampal neurone", "experiment": "Induction of neurite outgrowth in Sprague-Dawley E18 rat hippocampal neurons assessed as neurite length after 24 hrs in presence of anti-BDNF antibody by DAPI staining-based assay relative to control", "format": "functional, cell-based"}, "Hippocampal neurone [8]": {"tested_on": "Hippocampal neurone", "experiment": "Induction of neurite outgrowth in Sprague-Dawley E18 rat hippocampal neurons assessed as neurite length at 250 ug/ml solubilized in culture media after 24 hrs by DAPI staining-based assay relative to control", "format": "functional, cell-based"}, "Hippocampal neurone [9]": {"tested_on": "Hippocampal neurone", "experiment": "Induction of neurite outgrowth in Sprague-Dawley E18 rat hippocampal neurons assessed as neurite length at 50 ug/ml in presence of Proteus vulgaris Chondroitinase ABC after 12 hrs by DAPI staining-based assay relative to control", "format": "functional, cell-based"}}, "note": "Activity calls are given as the source filed them. The rule behind the calls is not given here."}
{"smiles": "CC(=O)N[C@H]1[C@H](O[C@H]2[C@H](O)[C@@H](O)[C@H](O[C@@H]3[C@@H](NC(C)=O)[C@H](OCCCCCCN=[N+]=[N-])O[C@H](COS(=O)(=O)O)[C@H]3OS(=O)(=O)O)O[C@@H]2C(=O)O)O[C@H](COS(=O)(=O)O)[C@@H](OS(=O)(=O)O)[C@@H]1O[C@@H]1O[C@H](C(=O)O)[C@@H](O)[C@H](O)[C@H]1O", "values": [{"measurement": "Activity", "setting": "[1]", "value": 6.7, "unit": "%"}, {"measurement": "Kd", "setting": "[2]", "value": 659, "unit": "nM"}, {"measurement": "Activity", "setting": "Midkine (Homo sapiens)", "value": "inactive"}, {"measurement": "Activity", "setting": "[3]", "value": "inactive"}, {"measurement": "Activity", "setting": "[4]", "value": "inactive"}]}
{"smiles": "CC(=O)N[C@H]1[C@H](O[C@H]2[C@H](O)[C@@H](O)[C@H](O[C@@H]3[C@@H](NC(C)=O)[C@H](OCCCCCCN=[N+]=[N-])O[C@H](CO)[C@H]3OS(=O)(=O)O)O[C@@H]2C(=O)O)O[C@H](CO)[C@@H](OS(=O)(=O)O)[C@@H]1O[C@@H]1O[C@H](C(=O)O)[C@@H](O)[C@H](O)[C@H]1O", "values": [{"measurement": "Activity", "setting": "[5]", "value": "inactive"}, {"measurement": "Activity", "setting": "Midkine (Homo sapiens)", "value": "inactive"}, {"measurement": "Activity", "setting": "[3]", "value": "inactive"}, {"measurement": "Activity", "setting": "[4]", "value": "inactive"}]}
{"smiles": "CC(=O)N[C@H]1[C@H](O[C@H]2[C@H](O)[C@@H](O)[C@H](O[C@H]3[C@H](O)[C@@H](CO)O[C@@H](OCCCCCCN=[N+]=[N-])[C@@H]3NC(C)=O)O[C@@H]2C(=O)O)O[C@H](CO)[C@@H](O)[C@@H]1O[C@@H]1O[C@H](C(=O)O)[C@@H](O)[C@H](O)[C@H]1O", "values": [{"measurement": "Activity", "setting": "[5]", "value": "inactive"}, {"measurement": "Activity", "setting": "Midkine (Homo sapiens)", "value": "inactive"}, {"measurement": "Activity", "setting": "[3]", "value": "inactive"}, {"measurement": "Activity", "setting": "[4]", "value": "inactive"}]}
{"smiles": "CC(=O)N[C@H]1[C@H](O[C@H]2[C@H](O)[C@@H](O)[C@H](O[C@H]3[C@@H](O)[C@@H](COS(=O)(=O)O)O[C@@H](OCCCCCCN=[N+]=[N-])[C@@H]3NC(C)=O)O[C@@H]2C(=O)O)O[C@H](COS(=O)(=O)O)[C@H](O)[C@@H]1O[C@@H]1O[C@H](C(=O)O)[C@@H](O)[C@H](O)[C@H]1O", "values": [{"measurement": "Activity", "setting": "[1]", "value": 1, "unit": "%"}, {"measurement": "Activity", "setting": "[5]", "value": "inactive"}, {"measurement": "Activity", "setting": "Midkine (Homo sapiens)", "value": "inactive"}, {"measurement": "Activity", "setting": "[3]", "value": "inactive"}, {"measurement": "Activity", "setting": "[4]", "value": "inactive"}]}
{"smiles": "CC(=O)N[C@H]1[C@H](O[C@H]2[C@H](O)[C@@H](O)[C@H](O[C@H]3[C@H](O)[C@@H](COS(=O)(=O)O)O[C@@H](OCCCCCCN=[N+]=[N-])[C@@H]3NC(C)=O)O[C@@H]2C(=O)O)O[C@H](COS(=O)(=O)O)[C@@H](O)[C@@H]1O[C@@H]1O[C@H](C(=O)O)[C@@H](O)[C@H](O)[C@H]1O", "values": [{"measurement": "Activity", "setting": "[1]", "value": 27.3, "unit": "%"}, {"measurement": "Kd", "setting": "[2]", "value": 490, "unit": "nM"}, {"measurement": "Kd", "setting": "Midkine", "value": 52.3, "unit": "nM"}, {"measurement": "Kd", "setting": "Pleiotrophin", "value": 77.8, "unit": "nM"}, {"measurement": "Activity", "setting": "[4]", "value": "inactive"}, {"measurement": "Activity", "setting": "Hippocampal neurone [6]", "value": "inactive"}, {"measurement": "Activity", "setting": "Hippocampal neurone [7]", "value": "inactive"}, {"measurement": "Activity", "setting": "Hippocampal neurone [8]", "value": "inactive"}]}
{"smiles": "CC(=O)N[C@H]1[C@H](O[C@H]2[C@H](O)[C@@H](O)[C@H](O[C@@H]3[C@@H](NC(C)=O)[C@H](OCCCCCCN=[N+]=[N-])O[C@H](COS(=O)(=O)O)[C@@H]3OS(=O)(=O)O)O[C@@H]2C(=O)O)O[C@H](COS(=O)(=O)O)[C@H](OS(=O)(=O)O)[C@@H]1O[C@@H]1O[C@H](C(=O)O)[C@@H](O)[C@H](O)[C@H]1O", "values": [{"measurement": "Activity", "setting": "[1]", "value": 29.6, "unit": "%"}, {"measurement": "Kd", "setting": "[2]", "value": 155, "unit": "nM"}, {"measurement": "Kd", "setting": "Midkine", "value": 96.3, "unit": "nM"}, {"measurement": "Kd", "setting": "Pleiotrophin", "value": 365, "unit": "nM"}, {"measurement": "Activity", "setting": "[4]", "value": "inactive"}, {"measurement": "Activity", "setting": "Hippocampal neurone [8]", "value": "inactive"}, {"measurement": "Activity", "setting": "Hippocampal neurone [9]", "value": "inactive"}]}
